In US10472341B2, “Bicyclic tetrahydrothiazepine derivatives useful for the treatment of neoplastic and/or infectious diseases” (APEIRON BIOLOGICS AG, priority 2015, dated 2019):

Tests used:
[1] = tested on: CD8 T cells; assay: Reactivity of isolated CFSE-labeled CD8 T cells to TCR stimulation (anti-CD3/anti-CD28): cytokines, proliferation, CD25; type: cell-based, human; conditions: for CD25 expression [% positive cells] Average / Cell Proliferation [Cell divisions/cell] Average / IFN-gamma production [ng/ml] Average / IL-2 production [ng/ml] Average / TNF-alpha production [ng/ml] Average: anti-CD3/anti-CD28
Experimental: (§1) • Buffy coat content was transferred to sterile plastic bottle and filled up to 480 ml with PBS, and distributed equally to 16×50 ml tubes (30 ml/tube) • Underlayed with ˜11 ml Lymphoprep and centrifuged 20 min (2200 rpm) • The interphase containing lymphocytes was taken off with transfer pipette, cells were washed twice with PBS and pooled to one tube to determine cell count (Coulter Diff ACT) Isolation of Immune Cell Subfractions from PBMCs by MACS • PBMCs were resuspended in MACS buffer (80 μl MACS-buffer/10^7 cells) and cells were isolated with Auto-MACS device using respective kits following manufacturer's recommendations TCR Stimulation and Measurement of T Cell Activation
(§2) Isolated T cells were plated in Xvivo medium at 1.5*10 ^5 cells per in 96 well culture plates and TCR-stimulated with anti-CD3/28 mAbs in the presence of compound as indicated. Cytokine production was determined at 24 h or 48 h following TCR stimulation in cell culture supernatants using commercially available ELISA kits (BD and eBioscience) as recommended by the manufacturer. T cell proliferation and CD25 expression (CD25-PC5 reagent purchased from Beckman Coulter) was determined by flow cytometry (Beckman-Coulter FC500) and analysed with Kaluza Software. For measurement of CD69 expression, isolated CD4 and CD8 T cells were plated in Xvivo medium at […] per in 96 well culture plates and TCR-stimulated with anti-CD3/28 mAbs in the presence of compound. CD69 expression was determined at 24 h following TCR stimulation by flow cytometry (CD4eF450, CD8APCeF780 and CD69-PC7 reagent purchased from eBioscience) and analysed with Kaluza Software.
Isolated CD8 T cells were CFSE-labeled and stimulated with anti-CD3 and anti-CD28 antibodies.

[2] = tested on: CD4 T cells; assay: TCR-mediated activation of isolated CFSE-labeled CD4 T cells (anti-CD3/anti-CD28): cytokines, proliferation, CD25; type: cell-based, human; conditions: for CD25 expression [% positive cells] Average / Cell Proliferation [Cell divisions/cell] Average / IFN-gamma production [ng/ml] Average / IL-2 production [ng/ml] Average / TNF-alpha production [ng/ml] Average: anti-CD3/anti-CD28
Experimental: as §1, §2
Isolated CD4 T cells were CFSE-labeled and stimulated with anti-CD3 and anti-CD28 antibodies.

CCCCNC(=O)c1ccc2c(c1)N(Cc1ccc(OC(F)(F)F)cc1)C(=O)[C@@H](N)CS2(=O)=O.Cl [Example 67, (3R)-3-amino-N-butyl-1,1,4-trioxo-5-{[4-(trifluoromethoxy)phenyl]methyl}-2,3,4,5-tetrahydro-1λ^6,5-benzothiazepine-7-carboxamide hydrochloride]
CD25 expression [% positive cells] Average ([1]; 0.05 μM): 61.07 % positive cells | Cell Proliferation [Cell divisions/cell] Average ([1]; 0.05 μM): 1.57 Cell divisions/cell | IFN-gamma production [ng/ml] Average ([1]; 0.05 μM): 0.14 ng/mL | IL-2 production [ng/ml] Average ([1]; 0.05 μM): 1.17 ng/mL | TNF-alpha production [ng/ml] Average ([1]; 0.05 μM): 1.09 ng/mL | CD25 expression [% positive cells] Average ([1]; 0.1 μM): 64.24 % positive cells | Cell Proliferation [Cell divisions/cell] Average ([1]; 0.1 μM): 1.72 Cell divisions/cell | IFN-gamma production [ng/ml] Average ([1]; 0.1 μM): 0.22 ng/mL | IL-2 production [ng/ml] Average ([1]; 0.1 μM): 2.32 ng/mL | TNF-alpha production [ng/ml] Average ([1]; 0.1 μM): 1.55 ng/mL | CD25 expression [% positive cells] Average ([1]; 0.25 μM): 68.81 % positive cells | Cell Proliferation [Cell divisions/cell] Average ([1]; 0.25 μM): 1.84 Cell divisions/cell | IFN-gamma production [ng/ml] Average ([1]; 0.25 μM): 0.31 ng/mL | IL-2 production [ng/ml] Average ([1]; 0.25 μM): 4.01 ng/mL | TNF-alpha production [ng/ml] Average ([1]; 0.25 μM): 2.16 ng/mL | CD25 expression [% positive cells] Average ([1]; 0.5 μM): 67.89 % positive cells | Cell Proliferation [Cell divisions/cell] Average ([1]; 0.5 μM): 1.88 Cell divisions/cell | IFN-gamma production [ng/ml] Average ([1]; 0.5 μM): 0.43 ng/mL | IL-2 production [ng/ml] Average ([1]; 0.5 μM): 7.64 ng/mL | TNF-alpha production [ng/ml] Average ([1]; 0.5 μM): 3.13 ng/mL | CD25 expression [% positive cells] Average ([1]; 1 μM): 71.00 % positive cells | Cell Proliferation [Cell divisions/cell] Average ([1]; 1 μM): 1.94 Cell divisions/cell | IFN-gamma production [ng/ml] Average ([1]; 1 μM): 0.61 ng/mL | IL-2 production [ng/ml] Average ([1]; 1 μM): 11.30 ng/mL | TNF-alpha production [ng/ml] Average ([1]; 1 μM): 4.04 ng/mL | CD25 expression [% positive cells] Average ([1]; 2.5 μM): 71.35 % positive cells | Cell Proliferation [Cell divisions/cell] Average ([1]; 2.5 μM): 1.93 Cell divisions/cell | IFN-gamma production [ng/ml] Average ([1]; 2.5 μM): 0.79 ng/mL | IL-2 production [ng/ml] Average ([1]; 2.5 μM): 16.77 ng/mL | TNF-alpha production [ng/ml] Average ([1]; 2.5 μM): 5.37 ng/mL | CD25 expression [% positive cells] Average ([1]; 5 μM): 71.76 % positive cells | Cell Proliferation [Cell divisions/cell] Average ([1]; 5 μM): 1.91 Cell divisions/cell | IFN-gamma production [ng/ml] Average ([1]; 5 μM): 0.91 ng/mL | IL-2 production [ng/ml] Average ([1]; 5 μM): 17.30 ng/mL | TNF-alpha production [ng/ml] Average ([1]; 5 μM): 6.68 ng/mL | CD25 expression [% positive cells] Average ([1]; 10 μM): 71.90 % positive cells | Cell Proliferation [Cell divisions/cell] Average ([1]; 10 μM): 1.83 Cell divisions/cell | IFN-gamma production [ng/ml] Average ([1]; 10 μM): 1.15 ng/mL | IL-2 production [ng/ml] Average ([1]; 10 μM): 19.63 ng/mL | TNF-alpha production [ng/ml] Average ([1]; 10 μM): 7.50 ng/mL | CD25 expression [% positive cells] Average ([1]; 20 μM): 69.70 % positive cells | Cell Proliferation [Cell divisions/cell] Average ([1]; 20 μM): 1.68 Cell divisions/cell | IFN-gamma production [ng/ml] Average ([1]; 20 μM): 1.32 ng/mL | IL-2 production [ng/ml] Average ([1]; 20 μM): 19.92 ng/mL | TNF-alpha production [ng/ml] Average ([1]; 20 μM): 7.13 ng/mL | production of IL-2, IFN-gamma and TNF-alpha, CD25 expression and T cell proliferation ([1]; anti-CD3 and anti-CD28): strongly enhanced | CD25 expression [% positive cells] Average ([2]; 0.05 μM): 47.88 % positive cells | Cell Proliferation [Cell divisions/cell] Average ([2]; 0.05 μM): 0.49 Cell divisions/cell | IFN-gamma production [ng/ml] Average ([2]; 0.05 μM): 0.06 ng/mL | IL-2 production [ng/ml] Average ([2]; 0.05 μM): 0.13 ng/mL | TNF-alpha production [ng/ml] Average ([2]; 0.05 μM): 0.26 ng/mL | CD25 expression [% positive cells] Average ([2]; 0.1 μM): 50.80 % positive cells | Cell Proliferation [Cell divisions/cell] Average ([2]; 0.1 μM): 0.58 Cell divisions/cell | IFN-gamma production [ng/ml] Average ([2]; 0.1 μM): 0.10 ng/mL | IL-2 production [ng/ml] Average ([2]; 0.1 μM): 0.21 ng/mL | TNF-alpha production [ng/ml] Average ([2]; 0.1 μM): 0.42 ng/mL | CD25 expression [% positive cells] Average ([2]; 0.25 μM): 59.10 % positive cells | Cell Proliferation [Cell divisions/cell] Average ([2]; 0.25 μM): 0.84 Cell divisions/cell | IFN-gamma production [ng/ml] Average ([2]; 0.25 μM): 0.23 ng/mL | IL-2 production [ng/ml] Average ([2]; 0.25 μM): 0.56 ng/mL | TNF-alpha production [ng/ml] Average ([2]; 0.25 μM): 0.71 ng/mL | CD25 expression [% positive cells] Average ([2]; 0.5 μM): 69.50 % positive cells | Cell Proliferation [Cell divisions/cell] Average ([2]; 0.5 μM): 1.03 Cell divisions/cell | IFN-gamma production [ng/ml] Average ([2]; 0.5 μM): 0.40 ng/mL | IL-2 production [ng/ml] Average ([2]; 0.5 μM): 1.00 ng/mL | TNF-alpha production [ng/ml] Average ([2]; 0.5 μM): 1.12 ng/mL | CD25 expression [% positive cells] Average ([2]; 1 μM): 79.50 % positive cells | Cell Proliferation [Cell divisions/cell] Average ([2]; 1 μM): 1.20 Cell divisions/cell | IFN-gamma production [ng/ml] Average ([2]; 1 μM): 0.64 ng/mL | IL-2 production [ng/ml] Average ([2]; 1 μM): 2.50 ng/mL | TNF-alpha production [ng/ml] Average ([2]; 1 μM): 1.65 ng/mL | CD25 expression [% positive cells] Average ([2]; 2.5 μM): 77.71 % positive cells | Cell Proliferation [Cell divisions/cell] Average ([2]; 2.5 μM): 1.35 Cell divisions/cell | IFN-gamma production [ng/ml] Average ([2]; 2.5 μM): 1.46 ng/mL | IL-2 production [ng/ml] Average ([2]; 2.5 μM): 7.48 ng/mL | TNF-alpha production [ng/ml] Average ([2]; 2.5 μM): 4.11 ng/mL | CD25 expression [% positive cells] Average ([2]; 5 μM): 79.53 % positive cells | Cell Proliferation [Cell divisions/cell] Average ([2]; 5 μM): 1.40 Cell divisions/cell | IFN-gamma production [ng/ml] Average ([2]; 5 μM): 2.22 ng/mL | IL-2 production [ng/ml] Average ([2]; 5 μM): 11.11 ng/mL | TNF-alpha production [ng/ml] Average ([2]; 5 μM): 5.47 ng/mL | CD25 expression [% positive cells] Average ([2]; 10 μM): 79.64 % positive cells | Cell Proliferation [Cell divisions/cell] Average ([2]; 10 μM): 1.38 Cell divisions/cell | IFN-gamma production [ng/ml] Average ([2]; 10 μM): 2.81 ng/mL | IL-2 production [ng/ml] Average ([2]; 10 μM): 13.62 ng/mL | TNF-alpha production [ng/ml] Average ([2]; 10 μM): 7.19 ng/mL | CD25 expression [% positive cells] Average ([2]; 20 μM): 75.14 % positive cells | Cell Proliferation [Cell divisions/cell] Average ([2]; 20 μM): 1.33 Cell divisions/cell | IFN-gamma production [ng/ml] Average ([2]; 20 μM): 3.29 ng/mL | IL-2 production [ng/ml] Average ([2]; 20 μM): 15.11 ng/mL | TNF-alpha production [ng/ml] Average ([2]; 20 μM): 9.31 ng/mL | T cell proliferation and expression of the surface activation marker CD25 ([2]; anti-CD3 and anti-CD28): enhanced | production of key cytokines (IL-2, IFN-gamma, TNF-alpha) ([2]; anti-CD3 and anti-CD28): strongly enhanced
